What was measured:
Type in all cases: biochemical
HDAC2 = target: T1, HDAC2 (Homo sapiens, UniProt Q92769); assay: HDAC Inhibition Screening Assay (FLUOR DE LYS Fluorimetric Drug Discovery Kit), HDAC2; conditions: for inhibition at 2 µM: 2 μM compound; for inhibition at 10 µM: 10 μM compound; for inhibition at 50 µM: 50 μM compound
T1 construct: purchased Enzo Life Sciences
Method: (§1) The HDAC1/HDAC2/HDAC3 in vitro activities are detected by Enzo Life Sciences' HDAC1/HDAC2/HDAC3 Fluorimetric Drug Discovery Kit. The assay is based on the FLUOR DE LYS® Substrate and FLUOR DE LYS® Developer combination. The assay procedure has two steps. First, the FLUOR DE LYS® Substrate, which comprises an acetylated lysine side chain, is incubated with HDAC1/HDAC2/HDAC3, respectively. Deacetylation of the substrate sensitizes the substrate so that, in the second step, treatment with the FLUOR DE LYS® Developer produces a fluorophore. The signals of the test compounds (Compounds 1˜83; at concentrations of 2 μM, 10 μM and 50 μM) in 96-well plates are detected at 360 nm or 485 nm excitation and 460 nm or 530 nm emission with a Molecular Devices SpectraMax i3 Imaging Cytometer. The HDAC1/HDAC2/HDAC3 activities are expressed in percentage of basal control minus baseline control.

ATX (autotaxin) = target: T2, ATX (autotaxin) (Homo sapiens, UniProt Q13822); assay: Autotaxin Inhibition Screening Assay (choline release from LPC, LPC-CR); conditions: for inhibition at 4 µM: 4 μM compound; for inhibition at 20 µM: 20 μM compound; for inhibition at 50 µM: 50 μM compound
T2 construct: purchased Cayman 10803
Method: ATX (autotaxin) activity was measured by choline release from LPC in presence or absence of test compounds (Compounds 1˜83; at concentrations of 4 μM, 20 μM and 50 μM). Twenty (20) ng ATX (10803, Cayman, MI, USA) was incubated with 100 μM 14:0 LPC (855575P, Avanti, AL, USA) in a final volume of 100 μL buffer containing 50 mM Tris pH 8.0, 0.01% Triton X-100, 50 mM CaCl2, 1 unit/ml choline oxidase, 2 unit/ml horseradish peroxidase (HRP), 2 mM homovanilic acid (HVA). The relative amount of released choline was measured by HVA fluorescence in a 96-well plate. Fluorescent intensity was determined at λex/λem=320/450 nm every 60 sec for 90 min with a SpectraMax i3 (Molecular Devices, CA, USA). Data analysis was performed using GraphPad Prism (GraphPad, La Jolla CA, USA). Inhibition %=[1−(SlopeTA−SlopeBlank)/(SlopeVehicle−SlopeBlank)]×100% HDAC Inhibition Screening Assay

HDAC3 = target: T3, HDAC3 (Homo sapiens, UniProt O15379); assay: HDAC Inhibition Screening Assay (FLUOR DE LYS Fluorimetric Drug Discovery Kit), HDAC3; conditions: for inhibition at 2 µM: 2 μM compound; for inhibition at 10 µM: 10 μM compound; for inhibition at 50 µM: 50 μM compound
T3 construct: purchased Enzo Life Sciences
T3 sequence (O15379 whole entry): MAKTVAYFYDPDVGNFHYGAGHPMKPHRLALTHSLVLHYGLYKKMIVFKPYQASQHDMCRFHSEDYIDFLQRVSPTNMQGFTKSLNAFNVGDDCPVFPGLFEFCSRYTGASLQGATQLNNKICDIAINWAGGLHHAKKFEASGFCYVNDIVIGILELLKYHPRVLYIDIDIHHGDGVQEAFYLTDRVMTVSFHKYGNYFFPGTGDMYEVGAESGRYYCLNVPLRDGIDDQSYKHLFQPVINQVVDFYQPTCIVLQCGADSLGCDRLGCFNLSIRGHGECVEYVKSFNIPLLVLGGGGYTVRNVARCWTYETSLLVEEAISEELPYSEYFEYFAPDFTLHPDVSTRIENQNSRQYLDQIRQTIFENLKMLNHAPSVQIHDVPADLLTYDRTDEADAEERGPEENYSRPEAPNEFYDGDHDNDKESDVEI
T3 sequence (O75376 395-489 partner limits assumed): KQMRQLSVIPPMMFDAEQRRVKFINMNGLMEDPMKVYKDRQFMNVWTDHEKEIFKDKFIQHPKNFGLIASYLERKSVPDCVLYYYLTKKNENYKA
Method: as §1

HDAC1 = target: T4, HDAC1 (Homo sapiens, UniProt Q13547); assay: HDAC Inhibition Screening Assay (FLUOR DE LYS Fluorimetric Drug Discovery Kit), HDAC1; conditions: for inhibition at 2 µM: 2 μM compound; for inhibition at 10 µM: 10 μM compound; for inhibition at 50 µM: 50 μM compound
T4 construct: purchased Enzo Life Sciences
T4 sequence (Q13547 whole entry): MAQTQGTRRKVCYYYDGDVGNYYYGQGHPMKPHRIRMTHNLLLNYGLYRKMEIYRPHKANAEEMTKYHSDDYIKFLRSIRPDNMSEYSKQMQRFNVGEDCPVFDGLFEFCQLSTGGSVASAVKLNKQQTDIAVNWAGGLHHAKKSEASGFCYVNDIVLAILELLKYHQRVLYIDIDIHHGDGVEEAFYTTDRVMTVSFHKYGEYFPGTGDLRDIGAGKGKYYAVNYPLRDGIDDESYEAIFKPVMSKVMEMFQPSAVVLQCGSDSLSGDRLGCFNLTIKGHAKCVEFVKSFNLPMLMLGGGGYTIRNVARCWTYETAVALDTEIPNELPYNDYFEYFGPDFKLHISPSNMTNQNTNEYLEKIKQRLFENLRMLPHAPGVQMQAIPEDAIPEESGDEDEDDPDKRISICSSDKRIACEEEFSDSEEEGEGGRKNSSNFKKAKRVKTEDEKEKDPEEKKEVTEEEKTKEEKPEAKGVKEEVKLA
Method: as §1

T1 sequence (Q92769 whole entry): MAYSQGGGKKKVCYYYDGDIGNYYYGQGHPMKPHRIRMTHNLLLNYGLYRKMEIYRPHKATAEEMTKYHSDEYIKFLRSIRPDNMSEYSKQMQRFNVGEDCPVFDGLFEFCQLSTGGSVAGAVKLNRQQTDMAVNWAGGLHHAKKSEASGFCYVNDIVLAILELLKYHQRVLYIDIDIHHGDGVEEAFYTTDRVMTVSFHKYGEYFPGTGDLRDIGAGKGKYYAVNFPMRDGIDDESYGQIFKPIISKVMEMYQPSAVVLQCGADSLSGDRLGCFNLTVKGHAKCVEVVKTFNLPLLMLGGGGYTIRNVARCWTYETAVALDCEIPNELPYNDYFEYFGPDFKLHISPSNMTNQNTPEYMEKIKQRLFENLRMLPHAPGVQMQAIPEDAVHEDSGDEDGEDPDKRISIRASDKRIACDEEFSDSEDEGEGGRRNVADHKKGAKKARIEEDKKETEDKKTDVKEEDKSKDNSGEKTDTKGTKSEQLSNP

inhibition at 2 µM (HDAC2) | inhibition at 10 µM (HDAC2) | inhibition at 50 µM (HDAC2) | inhibition at 4 µM (ATX (autotaxin)) | inhibition at 20 µM (ATX (autotaxin)) | inhibition at 50 µM (ATX (autotaxin)) | inhibition at 2 µM (HDAC3) | inhibition at 10 µM (HDAC3) | inhibition at 50 µM (HDAC3) | inhibition at 2 µM (HDAC1) | inhibition at 10 µM (HDAC1) | inhibition at 50 µM (HDAC1) | SMILES
< 50% | < 50% | 50 to 80% | < 50% | 50 to 80% | 50 to 80% | < 50% | < 50% | 50 to 80% | < 50% | < 50% | 50 to 80% | O=C(/C=C/c1ccc2c(c1)CC/C(=C\c1cc(C(F)(F)F)cc(C(F)(F)F)c1)C2=O)NO [Compound 7, (E)-3-(6-((E)-3,5-bis(trifluoromethyl)benzylidene)-5-oxo-5,6,7,8-tetrahydronaphthalen-2-yl)-N-hydroxyacrylamide]
> 80% | > 80% | > 80% | > 80% | > 80% | > 80% | < 50% | > 80% | > 80% | 50 to 80% | > 80% | > 80% | O=C(/C=C/c1ccc2c(c1)CC/C(=C\c1cc(C(F)(F)F)cc(C(F)(F)F)c1)C2=O)NCCCCCC(=O)NO [Compound 8, 6-((E)-3-(6-((E)-3,5-bis(trifluoromethyl)benzylidene)-5-oxo-5,6,7,8-tetrahydronaphthalen-2-yl)acrylamido)-N-hydroxyhexanamide]
< 50% | < 50% | < 50% | < 50% | < 50% | < 50% | < 50% | < 50% | < 50% | < 50% | < 50% | < 50% | Nc1cc(F)ccc1NC(=O)CCCCCCC(=O)Nc1ccc2c(c1)CCC(Cc1cc(C(F)(F)F)cc(C(F)(F)F)c1)C2=O (stereo not drawn) [Compound 9, N1-(2-amino-4-fluorophenyl)-N8-(6-(3,5-bis(trifluoromethyl)benzyl)-5-oxo-5,6,7,8-tetrahydronaphthalen-2-yl)octanediamide]
< 50% | > 80% | > 80% | > 80% | > 80% | > 80% | < 50% | 50 to 80% | > 80% | < 50% | 50 to 80% | > 80% | O=C(CCCCCCC(=O)Nc1ccc2c(c1)CCC(Cc1cc(C(F)(F)F)cc(C(F)(F)F)c1)C2=O)NO (stereo not drawn) [Compound 10, N1-(6-(3,5-bis(trifluoromethyl)benzyl)-5-oxo-5,6,7,8-tetrahydronaphthalen-2-yl)-N8-hydroxyoctanediamide]
< 50% | < 50% | < 50% | > 80% | > 80% | > 80% | < 50% | < 50% | < 50% | < 50% | < 50% | < 50% | Nc1cc(F)ccc1NC(=O)CCCCCC(=O)Nc1ccc2c(c1)CC/C(=C\c1cc(C(F)(F)F)cc(C(F)(F)F)c1)C2=O [Compound 11, (E)-N1-(2-amino-4-fluorophenyl)-N7-(6-(3,5-bis(trifluoromethyl)benzylidene)-5-oxo-5,6,7,8-tetrahydronaphthalen-2-yl)heptanediamide]
50 to 80% | > 80% | > 80% | > 80% | > 80% | > 80% | 50 to 80% | > 80% | > 80% | < 50% | 50 to 80% | > 80% | O=C(CCCCCC(=O)Nc1ccc2c(c1)CC/C(=C\c1cc(C(F)(F)F)cc(C(F)(F)F)c1)C2=O)NO [Compound 12, (E)-N1-(6-(3,5-bis(trifluoromethyl)benzylidene)-5-oxo-5,6,7,8-tetrahydronaphthalen-2-yl)-N7-hydroxyheptanediamide]
< 50% | < 50% | < 50% | 50 to 80% | 50 to 80% | 50 to 80% | < 50% | < 50% | < 50% | < 50% | < 50% | < 50% | Nc1cc(F)ccc1NC(=O)CCCCC(=O)Nc1ccc2c(c1)CC/C(=C\c1cc(C(F)(F)F)cc(C(F)(F)F)c1)C2=O [Compound 13, (E)-N1-(2-amino-4-fluorophenyl)-N6-(6-(3,5-bis(trifluoromethyl)benzylidene)-5-oxo-5,6,7,8-tetrahydronaphthalen-2-yl)adipamide]
< 50% | 50 to 80% | > 80% | > 80% | > 80% | > 80% | < 50% | < 50% | > 80% | < 50% | 50 to 80% | > 80% | O=C(CCCCC(=O)Nc1ccc2c(c1)CC/C(=C\c1cc(C(F)(F)F)cc(C(F)(F)F)c1)C2=O)NO [Compound 14, (E)-N1-(6-(3,5-bis(trifluoromethyl)benzylidene)-5-oxo-5,6,7,8-tetrahydronaphthalen-2-yl)-N6-hydroxyadipamide]
< 50% | 50 to 80% | > 80% | < 50% | < 50% | < 50% | < 50% | 50 to 80% | > 80% | < 50% | 50 to 80% | > 80% | O=C(/C=C/c1ccc2c(c1)CCC2NC(=O)OCc1cc(C(F)(F)F)cc(C(F)(F)F)c1)NO (stereo not drawn) [Compound 15, 3,5-bis(trifluoromethyl)benzyl (E)-(5-(3-(hydroxyamino)-3-oxoprop-1-en-1-yl)-2,3-dihydro-1H-inden-1-yl)carbamate]
> 80% | > 80% | > 80% | < 50% | < 50% | < 50% | > 80% | > 80% | > 80% | > 80% | > 80% | > 80% | Cc1ccc(S(=O)(=O)NC2CCc3cc(/C=C/C(=O)NO)ccc32)cc1 (stereo not drawn) [Compound 16, (E)-N-hydroxy-3-(1-((4-methylphenyl)sulfonamido)-2,3-dihydro-1H-inden-5-yl)acrylamide]
< 50% | < 50% | < 50% | < 50% | < 50% | < 50% | < 50% | < 50% | < 50% | < 50% | < 50% | < 50% | Nc1cc(F)ccc1NC(=O)/C=C/c1ccc2c(c1)CCC2NS(=O)(=O)c1cc(C(F)(F)F)cc(C(F)(F)F)c1 (stereo not drawn) [Compound 17, (E)-N-(2-amino-4-fluorophenyl)-3-(1-((3,5-bis(trifluoromethyl)phenyl)sulfonamido)-2,3-dihydro-1H-inden-5-yl)acrylamide]
50 to 80% | 50 to 80% | > 80% | < 50% | < 50% | < 50% | < 50% | 50 to 80% | > 80% | < 50% | 50 to 80% | > 80% | O=C(/C=C/c1ccc2c(c1)CCC2NS(=O)(=O)c1cc(C(F)(F)F)cc(C(F)(F)F)c1)NO (stereo not drawn) [Compound 18]
< 50% | < 50% | < 50% | < 50% | < 50% | < 50% | < 50% | < 50% | < 50% | < 50% | < 50% | < 50% | COc1ccc(S(=O)(=O)NC2CCc3cc(/C=C/C(=O)Nc4ccc(F)cc4N)ccc32)cc1 (stereo not drawn) [Compound 19, (E)-N-(2-amino-4-fluorophenyl)-3-(1-((4-methoxyphenyl)sulfonamido)-2,3-dihydro-1H-inden-5-yl)acrylamide]
